Laboratory results from BigSolDB 2.1.

CC(=O)O[C@]1(C(C)=O)CC[C@H]2[C@@H]3C[C@H](C)C4=CC(=O)CC[C@]4(C)[C@H]3CC[C@@]21C
solubility (mole fraction)
Conditions	278.15 K	283.15 K	288.15 K	293.15 K	298.15 K	303.15 K	308.15 K	313.15 K	318.15 K	323.15 K
in isopropyl acetate	0.00234	0.00273	0.00317	0.00367	0.00428	0.00497	0.00567	0.00657	0.00751	0.00866
in methanol	0.000588	0.000719	0.000887	0.0011	0.00135	0.00165	0.00202	0.0025	0.00309	0.00381
in methyl acetate	0.00351	0.00415	0.00479	0.00557	0.00649	0.00748	0.00866	0.00999	0.0115	0.0131
in n-butanol	0.000757	0.000978	0.00131	0.00168	0.0022	0.00277	0.00356	0.0046	0.0059	0.00753
in n-butyl acetate	0.00296	0.0035	0.00406	0.00462	0.00538	0.00622	0.00716	0.00829	0.00958	0.0111
in n-propanol	0.000683	0.00089	0.00114	0.00148	0.00188	0.00245	0.0031	0.00395	0.00508	0.00648
in n-propyl acetate	0.0032	0.00384	0.00446	0.00517	0.0059	0.00682	0.00791	0.00917	0.0105	0.012
